System: HCT116 tumors
Assay: Antitumor effect of oral α-methyl-DL-tyrosine in athymic nude mice bearing HCT116 tumors
Format: in vivo
Experimental: A study was conducted to evaluate the antitumor effect of an oral formulations of α-methyl-DL-tyrosine in athymic nude mice bearing HCT116 tumors. Athymic nude mice (female, 6-7 weeks old) were purchased from Charles River Laboratories, USA. The mice were housed in a ventilated cage rack with HEAP filter system, with 12-hour light cycle at 21-24° C. (70-75° F.) and 40-60% humidity. The mice were fed with Rodent Diet 5001 (Lab Diet) consisting of: >23% protein; >4.5% fat; and >6% fiber. The mice were allowed free access to water ([…] water, 1 ppm CI). The mice were acclimated for 5 days prior to the implantation of HCT116 cells at 1 million cells per mouse in 100 ul of 1×PBS containing 50% Matrigel. At the completion of study, mice were euthanized with isoflurane followed by inhalation of carbon dioxide (CO2). The HCT116 cells (human colon carcinoma) were purchased from ATCC, and expanded to sufficient number of cells for tumor cell implantation. Solutions of α-methyl-DL-tyrosine at 16.2 mg/ml, 32.4 mg/ml, and 64.8 mg/ml in water were prepared After an acclimation period of 5 days, fifty (50) athymic nude female mice were inoculated in the thigh/flank area with 1 million of HCT116 cells suspended in 100 μl 1×PBS containing 50% Matrigel. Beginning at Day 6 post cell inoculation, the tumor volume was measured every day until the average tumor volume reached about 100 mm^3 (Tumor Volume=length×width×width×0.5). Forty-four (44) out of the fifty (50) mice within the range of 50-150 mm^3 were selected and randomly grouped into 4 groups (n=11): a control group treated with water ([…]), and 324 mg/kg (Group 4). The HCT-116 tumor bearing mice were oral gavage (PO) dosed daily at 5 ml/kg with water (Group 1), α-methyl-DL-tyrosine at 81 mg/kg (Group 2), α-methyl-DL-tyrosine at 162 mg/kg (Group 3), and α-methyl-DL-tyrosine at 324 mg/kg (Group 4) for 28 days. Clinical observations were made daily; tumor volume was measured every three to four days prior to dosing until the completion of study or when individual tumor volume exceeds 2000 mm^3.

Structure (SMILES): CC(N)(Cc1ccc(O)cc1)C(=O)O (racemic) [α-methyl-DL-tyrosine]
- tumor growth inhibition (324 mg/kg daily PO, p<0.05, t-test): statistically significant
- tumor inhibition (324 mg/kg daily, Day 28): non-significant
- HCT-116 Tumor volume (group average) (G2, 162 mg/kg [sic] PO daily, n = 11, Day 0 post 1st dosing): 63.5 mm^3
- HCT-116 Tumor volume (group average) (G2, 162 mg/kg [sic] PO daily, n = 11, Day 4 post 1st dosing): 112.5 mm^3
- HCT-116 Tumor volume (group average) (G2, 162 mg/kg [sic] PO daily, n = 11, Day 7 post 1st dosing): 215.3 mm^3
- HCT-116 Tumor volume (group average) (G2, 162 mg/kg [sic] PO daily, n = 11, Day 11 post 1st dosing): 373.6 mm^3
- HCT-116 Tumor volume (group average) (G2, 162 mg/kg [sic] PO daily, n = 11, Day 14 post 1st dosing): 643.5 mm^3
- HCT-116 Tumor volume (group average) (G2, 162 mg/kg [sic] PO daily, n = 11, Day 18 post 1st dosing): 1022.3 mm^3
- HCT-116 Tumor volume (group average) (G2, 162 mg/kg [sic] PO daily, n = 11, Day 21 post 1st dosing): 1405.9 mm^3
- HCT-116 Tumor volume (group average) (G2, 162 mg/kg [sic] PO daily, n = 11, Day 25 post 1st dosing): 1592.4 mm^3
- HCT-116 Tumor volume (group average) (G2, 162 mg/kg [sic] PO daily, n = 11, Day 28 post 1st dosing): 1718.8 mm^3
- HCT-116 Tumor volume (group average) (G3, 81 mg/kg [sic] PO daily, n = 11, Day 0 post 1st dosing): 64.3 mm^3
- HCT-116 Tumor volume (group average) (G3, 81 mg/kg [sic] PO daily, n = 11, Day 4 post 1st dosing): 106.0 mm^3
- HCT-116 Tumor volume (group average) (G3, 81 mg/kg [sic] PO daily, n = 11, Day 7 post 1st dosing): 214.6 mm^3
- HCT-116 Tumor volume (group average) (G3, 81 mg/kg [sic] PO daily, n = 11, Day 11 post 1st dosing): 391.4 mm^3
- HCT-116 Tumor volume (group average) (G3, 81 mg/kg [sic] PO daily, n = 11, Day 14 post 1st dosing): 676.6 mm^3
- HCT-116 Tumor volume (group average) (G3, 81 mg/kg [sic] PO daily, n = 11, Day 18 post 1st dosing): 1210.3 mm^3
- HCT-116 Tumor volume (group average) (G3, 81 mg/kg [sic] PO daily, n = 11, Day 21 post 1st dosing): 1680.1 mm^3
- HCT-116 Tumor volume (group average) (G3, 81 mg/kg [sic] PO daily, n = 11, Day 25 post 1st dosing): 1868.0 mm^3
- HCT-116 Tumor volume (group average) (G3, 81 mg/kg [sic] PO daily, n = 11, Day 28 post 1st dosing): 1979.2 mm^3
- HCT-116 Tumor volume (group average) (G4, 324 mg/kg PO daily, n = 11, Day 0 post 1st dosing): 64.2 mm^3
- HCT-116 Tumor volume (group average) (G4, 324 mg/kg PO daily, n = 11, Day 4 post 1st dosing): 92.9 mm^3
- HCT-116 Tumor volume (group average) (G4, 324 mg/kg PO daily, n = 11, Day 7 post 1st dosing): 172.3 mm^3
- HCT-116 Tumor volume (group average) (G4, 324 mg/kg PO daily, n = 11, Day 11 post 1st dosing): 310.5 mm^3
- HCT-116 Tumor volume (group average) (G4, 324 mg/kg PO daily, n = 11, Day 14 post 1st dosing): 506.3 mm^3
- HCT-116 Tumor volume (group average) (G4, 324 mg/kg PO daily, n = 11, Day 18 post 1st dosing): 654.9 mm^3
- HCT-116 Tumor volume (group average) (G4, 324 mg/kg PO daily, n = 11, Day 21 post 1st dosing): 890.6 mm^3
- HCT-116 Tumor volume (group average) (G4, 324 mg/kg PO daily, n = 11, Day 25 post 1st dosing): 1090.1 mm^3
- HCT-116 Tumor volume (group average) (G4, 324 mg/kg PO daily, n = 11, Day 28 post 1st dosing): 1325.7 mm^3
- maximum anti-tumor efficacy, reduction in tumor volume (observed on Day 22 (so in the source)): 48%
